Source: patent US7109193B2, “Tricyclic diazepines tocolytic oxytocin receptor antagonists” (Wyeth, priority 2001, dated 2006)
Counter-ions that a name gives are not always drawn.

Legend:
[1] = molecular target: T1, human vasopressin V1a receptor subtype (Homo sapiens, UniProt P37288); experiment: Vasopressin binding in Chinese Hamster Ovary cell membranes expressing human vasopressin V1a subtype receptors; conditions: CHO cell membranes, [3H]Manning ligand; for IC50: values in parentheses; for inhibition at 0.1 µM: 100 nM, values without parentheses
T1 construct: host or cells: CHO cells (pZeoSV vector for the Thibonnier line)
Procedure, shortened: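 Displacement of [3H]Manning ligand (8 nM working solution) from human V1a receptors in CHO cell membranes, 25–50 μg protein per well. Incubation ran 60 min at room temperature in 50 mM Tris-HCl pH 7.4 with protease inhibitors, followed by filtration and scintillation counting. Results are given as IC50 or percent inhibition.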

T1 sequence (P37288 whole entry): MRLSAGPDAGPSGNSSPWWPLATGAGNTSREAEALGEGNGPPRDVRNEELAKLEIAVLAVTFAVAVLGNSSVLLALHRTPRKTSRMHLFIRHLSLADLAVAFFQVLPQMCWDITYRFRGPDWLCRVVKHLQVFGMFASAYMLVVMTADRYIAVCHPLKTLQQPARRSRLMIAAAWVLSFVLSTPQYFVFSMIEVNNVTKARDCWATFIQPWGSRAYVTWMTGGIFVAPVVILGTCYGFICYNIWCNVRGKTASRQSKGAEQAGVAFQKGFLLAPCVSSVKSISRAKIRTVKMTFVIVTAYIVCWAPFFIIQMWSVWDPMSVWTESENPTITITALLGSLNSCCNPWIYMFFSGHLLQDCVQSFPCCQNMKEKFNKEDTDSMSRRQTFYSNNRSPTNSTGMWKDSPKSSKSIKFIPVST

IC50 [1] | melting point | inhibition at 0.1 µM [1] | SMILES
45.6 nM | 141 to 144 °C |  | COc1cc(C(=O)N2Cc3cccn3Cc3ccccc32)ccc1-n1c(C)ccc1C [Example 27, [4-(2,5-Dimethyl-1-H-pyrrol-1-yl)-3-methoxy-phenyl][10,11-dihydro-5H-pyrrolo[2,1-c][1,4]benzodiazepin-10-yl]methanone]
66.6 nM | 155 to 158 °C |  | O=C(c1ccc(-c2cccc3ccccc23)nc1)N1Cc2cccn2Cc2ccccc21 [Example 28, [6-(Naphthalen-1-yl)-pyridin-3-yl]-[10,11-dihydro-5H-pyrrolo[2,1-c][1,4]benzodiazepin-10-yl]methanone]
225 nM | 187 to 190 °C |  | COc1cc(C(=O)N2Cc3ccc(C(=O)N(C)CCN(C)C)n3Cc3ccccc32)ccc1-c1ccccc1C(F)(F)F [Example 22, N-Methyl-[N-(2-dimethylamino)ethyl]-10-{[2-methoxy-2′-trifluoromethyl-[1,1′-biphenyl]-4-yl]carbonyl}-10,11-dihydro-5H-pyrrolo[2,1-c][1,4]benzodiazepine-3-carboxamide]
22.5 nM | 115 to 117.5 °C |  | O=C(c1ccc(-c2cccc3ccccc23)cc1Cl)N1Cc2cccn2Cc2ccccc21 [Example 24, [2-Chloro-4-(naphthalen-1-yl)phenyl][10,11-dihydro-5H-pyrrolo[2,1-c][1,4]benzodiazepin-10-yl]methanone]
2480 nM |  |  | Cc1cc(C(=O)N2Cc3ccc(C(=O)N4CCNCC4)n3Cc3ccccc32)ccc1-c1ccccc1C(F)(F)F [Example 7, 10,11-Dihydro-10-[[2-methyl-2′-trifluoromethyl-[1,1′-biphenyl]-4-yl]carbonyl]-3-(1-piperazinylcarbonyl)-5H-pyrrolo[2,1-c][1,4]benzodiazepine hydrochloride salt]
818 nM |  |  | C=CCN1CCN(C(=O)c2ccc3n2Cc2ccccc2N(C(=O)c2ccc(-c4ccccc4OC)cc2)C3)CC1 [Example 221, (4-Allyl-1-piperazinyl){10-[(2′-methoxy[1,1′-biphenyl]4-yl)carbonyl]-10,11-dihydro-5H -pyrrolo[2,1-c][1,4]benzodiazepin-3-yl}methanone]
2720 nM |  |  | Cc1cc(C(=O)N2Cc3ccc(C(=O)N4CCN(C)CC4)n3Cc3ccccc32)ccc1-c1ccccc1C(F)(F)F [Example 2, (4-Methyl-piperazin-1-yl)-[10-(2-methyl-2′-trifluoromethyl-[1,1′-biphenyl]-4-yl)-carbonyl]-10,11-dihydro-5H-pyrrolo[2,1-c][1,4]benzodiazepin-3-yl-methanone]
 |  | 28% | COc1ccccc1-c1ccc(C(=O)N2Cc3ccc(C(=O)N(C)CCN(C)C)n3Cc3ccccc32)cc1OC [Example 94, 10-[(2,2′-Dimethoxy[1,1′-biphenyl]-4-yl)carbonyl]-N-[2-(dimethylamino)ethyl]-N-methyl-10,11-dihydro-5H-pyrrolo[2,1-c][1,4]benzodiazepine-3-carboxamide]
 |  | 29% | COc1cc(C(=O)N2Cc3ccc(C(=O)N(C)CCN(C)C)n3Cc3ccccc32)ccc1-c1cccc2ccccc12 [Example 93, N-[2-(Dimethylamino)ethyl]-10-[3-methoxy-4-(1-naphthyl)benzoyl]-N-methyl-10,11-dihydro-5H-pyrrolo[2,1-c][1,4]benzodiazepine-3-carboxamide]
303 nM |  |  | COc1cccc(-c2ccc(C(=O)N3Cc4ccc(C(=O)N5CC[C@@H](N(C)C)C5)n4Cc4ccccc43)cc2C)c1 [Example 278, [(3R)-3-(Dimethylamino)pyrrolidinyl]{10-[(3′-methoxy-2-methyl[1,1′-biphenyl]-4-yl)carbonyl]-10,11-dihydro-5H-pyrrolo[2,1-c][1,4]benzodiazepin-3-yl}methanone]
1240 nM |  |  | Cc1cc(C(=O)N2Cc3ccc(C(=O)N4CCN(CCN(C)C)CC4)n3Cc3ccccc32)ccc1-c1ccccc1C(F)(F)F [Example 196, {4-[2-(Dimethylamino)ethyl]-1-piperazinyl}(10-{[2-methyl-2′-(trifluoromethyl)[1,1′-biphenyl]-4-yl]carbonyl}-10,11-dihydro-5H-pyrrolo[2,1-c][1,4]benzodiazepin-3-yl)methanone]
